The values that follow come from US11208412B2 (DAEGU-GYEONGBUK MEDICAL INNOVATION FOUNDATION, priority 2017, dated 2021).

SMILES strings stand for the structures. Where two headings read alike, the source gives them in different places.

Common to all, as to experiment: Kinase selectivity, DiscoverX scanMAX Kinase assay panel (% control)
What all share (format): binding

Assay [1] addresses T1, kinases of the scanMAX Kinase assay panel (Homo sapiens, UniProt O15075).
T1 construct: purchased DiscoverX Co. (contract measurement) scanMAX Kinase assay panel
The note with it: DCAMKL1; 1 uM. Summed up:
(§1)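 Each enzyme is treated with drug at 1 uM in DMSO, then signal is scaled between a positive control (0%) and DMSO (100%) to give % control. Kinases with % control under 35% are scored as inhibited.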

For assay [2], the target named is T2, kinases of the scanMAX Kinase assay panel (Homo sapiens, UniProt O75116).
T2 construct: purchased DiscoverX Co. (contract measurement) scanMAX Kinase assay panel
T2 sequence (O75116 whole entry): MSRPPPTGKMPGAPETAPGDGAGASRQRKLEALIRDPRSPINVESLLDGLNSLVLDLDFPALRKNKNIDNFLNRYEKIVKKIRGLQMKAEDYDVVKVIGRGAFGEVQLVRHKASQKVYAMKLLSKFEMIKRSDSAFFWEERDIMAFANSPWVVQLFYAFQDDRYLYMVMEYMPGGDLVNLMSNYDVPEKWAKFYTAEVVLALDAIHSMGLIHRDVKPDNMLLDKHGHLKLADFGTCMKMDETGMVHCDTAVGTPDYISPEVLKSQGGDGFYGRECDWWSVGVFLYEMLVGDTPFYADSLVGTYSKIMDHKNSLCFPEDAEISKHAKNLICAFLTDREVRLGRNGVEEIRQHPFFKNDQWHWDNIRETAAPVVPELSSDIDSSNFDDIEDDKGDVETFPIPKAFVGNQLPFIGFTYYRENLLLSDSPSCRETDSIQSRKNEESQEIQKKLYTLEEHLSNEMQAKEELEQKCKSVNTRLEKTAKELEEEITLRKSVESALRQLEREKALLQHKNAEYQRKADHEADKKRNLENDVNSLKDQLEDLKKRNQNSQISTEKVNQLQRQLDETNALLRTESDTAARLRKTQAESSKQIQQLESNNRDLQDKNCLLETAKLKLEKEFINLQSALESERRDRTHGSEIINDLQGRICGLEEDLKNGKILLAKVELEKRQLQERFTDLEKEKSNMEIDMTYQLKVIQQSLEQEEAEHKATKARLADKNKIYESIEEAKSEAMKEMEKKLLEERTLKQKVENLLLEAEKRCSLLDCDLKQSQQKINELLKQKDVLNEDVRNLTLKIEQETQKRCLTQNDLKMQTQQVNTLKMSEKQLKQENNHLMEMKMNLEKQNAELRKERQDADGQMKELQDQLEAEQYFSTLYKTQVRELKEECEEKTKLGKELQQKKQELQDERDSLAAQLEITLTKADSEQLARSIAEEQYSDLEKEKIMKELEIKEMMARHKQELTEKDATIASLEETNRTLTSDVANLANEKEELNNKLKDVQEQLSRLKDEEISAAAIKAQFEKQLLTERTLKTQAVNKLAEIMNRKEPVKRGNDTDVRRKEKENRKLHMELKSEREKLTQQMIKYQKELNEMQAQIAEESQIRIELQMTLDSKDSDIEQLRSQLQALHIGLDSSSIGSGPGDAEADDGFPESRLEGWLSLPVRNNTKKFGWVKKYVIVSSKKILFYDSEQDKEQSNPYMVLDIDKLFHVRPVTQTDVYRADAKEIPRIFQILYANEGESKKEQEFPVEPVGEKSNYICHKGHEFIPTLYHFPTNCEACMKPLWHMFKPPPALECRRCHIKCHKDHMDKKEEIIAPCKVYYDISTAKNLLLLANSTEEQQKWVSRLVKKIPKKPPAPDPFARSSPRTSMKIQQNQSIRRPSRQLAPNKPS
The conditions noted are these: kinase ROCK2; 1 uM in DMSO. Summed up: as §1

The target of assay [3] is T3, kinases of the scanMAX Kinase assay panel (Homo sapiens, UniProt P30291).
T3 construct: purchased DiscoverX Co. (contract measurement) scanMAX Kinase assay panel
T3 sequence (P30291 whole entry): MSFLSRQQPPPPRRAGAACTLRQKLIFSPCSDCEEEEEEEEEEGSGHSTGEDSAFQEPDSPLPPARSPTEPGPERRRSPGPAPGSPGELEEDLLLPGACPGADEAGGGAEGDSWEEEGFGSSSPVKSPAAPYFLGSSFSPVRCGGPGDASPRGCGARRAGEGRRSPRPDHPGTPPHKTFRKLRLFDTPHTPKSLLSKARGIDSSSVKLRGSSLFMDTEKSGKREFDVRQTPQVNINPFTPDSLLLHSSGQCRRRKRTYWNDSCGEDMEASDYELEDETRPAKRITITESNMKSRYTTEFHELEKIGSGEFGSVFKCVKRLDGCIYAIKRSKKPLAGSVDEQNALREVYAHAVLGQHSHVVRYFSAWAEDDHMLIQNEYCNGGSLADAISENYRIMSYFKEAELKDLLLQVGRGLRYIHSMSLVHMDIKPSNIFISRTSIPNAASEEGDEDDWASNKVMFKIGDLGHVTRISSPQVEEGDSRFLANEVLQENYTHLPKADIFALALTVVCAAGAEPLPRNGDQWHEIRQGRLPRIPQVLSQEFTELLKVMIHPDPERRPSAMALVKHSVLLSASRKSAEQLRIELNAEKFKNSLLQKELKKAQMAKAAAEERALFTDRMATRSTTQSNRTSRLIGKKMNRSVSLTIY
The note with it: kinase WEE1; 1 uM in DMSO. Summed up:
as §1

Assay [4] addresses T4, kinases of the scanMAX Kinase assay panel (Homo sapiens, UniProt P42336, C420R).
T4 construct: purchased DiscoverX Co. (contract measurement) scanMAX Kinase assay panel
The conditions noted are these: PIK3CA(C420R); 1 uM. Summed up: as §1

The target of assay [5] is T5, kinases of the scanMAX Kinase assay panel (Homo sapiens, UniProt P48730).
T5 construct: purchased DiscoverX Co. (contract measurement) scanMAX Kinase assay panel
The note with it: CSNK1D; 1 uM. Summed up: as §1

In assay [6] the target is T6, kinases of the scanMAX Kinase assay panel (Homo sapiens, UniProt P49674).
T6 construct: purchased DiscoverX Co. (contract measurement) scanMAX Kinase assay panel
T6 sequence (P49674 whole entry): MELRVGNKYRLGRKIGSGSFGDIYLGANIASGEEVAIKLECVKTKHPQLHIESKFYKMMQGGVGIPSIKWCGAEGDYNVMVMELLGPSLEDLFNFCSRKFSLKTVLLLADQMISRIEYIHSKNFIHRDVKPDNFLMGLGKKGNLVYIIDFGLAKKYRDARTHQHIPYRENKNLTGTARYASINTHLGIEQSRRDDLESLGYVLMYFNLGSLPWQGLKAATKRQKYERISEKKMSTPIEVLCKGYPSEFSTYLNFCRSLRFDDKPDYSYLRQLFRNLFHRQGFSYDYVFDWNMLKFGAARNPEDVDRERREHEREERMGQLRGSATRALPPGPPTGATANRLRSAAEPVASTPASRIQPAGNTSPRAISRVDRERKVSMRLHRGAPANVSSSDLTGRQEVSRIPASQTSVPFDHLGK
The conditions noted are these: CSNK1E; 1 uM. In outline:
as §1

Assay [7] addresses T7, kinases of the scanMAX Kinase assay panel (Homo sapiens, UniProt P51812).
T7 construct: purchased DiscoverX Co. (contract measurement) scanMAX Kinase assay panel
The conditions noted are these: 1 uM in DMSO. Summed up:
as §1

Assay [8] deals with T8, kinases of the scanMAX Kinase assay panel (Homo sapiens, UniProt P51956).
T8 construct: purchased DiscoverX Co. (contract measurement) scanMAX Kinase assay panel
T8 sequence (P51956 1-506): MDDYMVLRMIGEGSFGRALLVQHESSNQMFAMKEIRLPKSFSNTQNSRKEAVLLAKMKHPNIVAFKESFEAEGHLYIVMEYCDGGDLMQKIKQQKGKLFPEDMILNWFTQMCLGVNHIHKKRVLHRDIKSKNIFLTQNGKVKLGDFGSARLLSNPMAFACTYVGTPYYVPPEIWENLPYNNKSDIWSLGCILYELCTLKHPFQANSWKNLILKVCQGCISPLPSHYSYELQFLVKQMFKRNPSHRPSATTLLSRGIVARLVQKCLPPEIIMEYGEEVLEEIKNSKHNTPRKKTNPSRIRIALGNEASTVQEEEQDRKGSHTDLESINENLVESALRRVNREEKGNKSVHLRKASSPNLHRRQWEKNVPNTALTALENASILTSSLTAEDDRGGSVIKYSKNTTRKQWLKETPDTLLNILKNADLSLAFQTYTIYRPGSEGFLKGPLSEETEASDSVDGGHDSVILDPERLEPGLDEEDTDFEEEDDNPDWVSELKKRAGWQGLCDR
The note with it: NEK3; 1 uM. In outline: as §1

Assay [9] addresses T9, kinases of the scanMAX Kinase assay panel (Homo sapiens, UniProt P53667).
T9 construct: purchased DiscoverX Co. (contract measurement) scanMAX Kinase assay panel
The conditions noted are these: LIMK1; 1 uM. In outline: as §1

Assay [10] deals with T10, kinases of the scanMAX Kinase assay panel (Homo sapiens, UniProt P78362).
T10 construct: purchased DiscoverX Co. (contract measurement) scanMAX Kinase assay panel
T10 sequence (P78362 whole entry): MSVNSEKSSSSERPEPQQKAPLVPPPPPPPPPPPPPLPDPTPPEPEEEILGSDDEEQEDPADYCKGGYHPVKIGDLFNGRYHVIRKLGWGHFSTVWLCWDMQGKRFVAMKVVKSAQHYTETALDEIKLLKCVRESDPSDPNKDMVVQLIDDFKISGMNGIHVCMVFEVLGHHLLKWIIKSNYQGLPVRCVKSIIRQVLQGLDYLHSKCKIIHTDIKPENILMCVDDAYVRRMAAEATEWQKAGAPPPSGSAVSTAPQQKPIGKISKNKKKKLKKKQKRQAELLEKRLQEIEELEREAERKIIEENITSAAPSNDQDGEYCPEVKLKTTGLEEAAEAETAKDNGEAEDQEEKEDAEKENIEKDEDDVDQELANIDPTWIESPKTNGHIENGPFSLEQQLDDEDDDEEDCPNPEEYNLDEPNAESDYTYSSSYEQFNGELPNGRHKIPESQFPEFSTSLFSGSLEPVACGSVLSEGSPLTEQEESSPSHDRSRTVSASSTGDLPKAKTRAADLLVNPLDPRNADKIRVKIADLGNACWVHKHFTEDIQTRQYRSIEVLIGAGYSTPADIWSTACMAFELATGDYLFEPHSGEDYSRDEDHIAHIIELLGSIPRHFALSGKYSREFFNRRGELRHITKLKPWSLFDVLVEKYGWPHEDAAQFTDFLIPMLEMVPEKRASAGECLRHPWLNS
The conditions noted are these: kinase SRPK2; 1 uM in DMSO. In outline:
as §1

The target in assay [11] is T11, kinases of the scanMAX Kinase assay panel (Homo sapiens, UniProt Q02779).
T11 construct: purchased DiscoverX Co. (contract measurement) scanMAX Kinase assay panel
The note with it: MLK2; 1 uM. In outline: as §1

In assay [12] the target is T12, kinases of the scanMAX Kinase assay panel (Homo sapiens, UniProt Q13554).
T12 construct: purchased DiscoverX Co. (contract measurement) scanMAX Kinase assay panel
The conditions noted are these: CAMK2B; 1 uM. Summed up:
as §1

Assay [13] concerns the target T13, kinases of the scanMAX Kinase assay panel (Homo sapiens, UniProt Q99759).
T13 construct: purchased DiscoverX Co. (contract measurement) scanMAX Kinase assay panel
T13 sequence (Q99759 1-626): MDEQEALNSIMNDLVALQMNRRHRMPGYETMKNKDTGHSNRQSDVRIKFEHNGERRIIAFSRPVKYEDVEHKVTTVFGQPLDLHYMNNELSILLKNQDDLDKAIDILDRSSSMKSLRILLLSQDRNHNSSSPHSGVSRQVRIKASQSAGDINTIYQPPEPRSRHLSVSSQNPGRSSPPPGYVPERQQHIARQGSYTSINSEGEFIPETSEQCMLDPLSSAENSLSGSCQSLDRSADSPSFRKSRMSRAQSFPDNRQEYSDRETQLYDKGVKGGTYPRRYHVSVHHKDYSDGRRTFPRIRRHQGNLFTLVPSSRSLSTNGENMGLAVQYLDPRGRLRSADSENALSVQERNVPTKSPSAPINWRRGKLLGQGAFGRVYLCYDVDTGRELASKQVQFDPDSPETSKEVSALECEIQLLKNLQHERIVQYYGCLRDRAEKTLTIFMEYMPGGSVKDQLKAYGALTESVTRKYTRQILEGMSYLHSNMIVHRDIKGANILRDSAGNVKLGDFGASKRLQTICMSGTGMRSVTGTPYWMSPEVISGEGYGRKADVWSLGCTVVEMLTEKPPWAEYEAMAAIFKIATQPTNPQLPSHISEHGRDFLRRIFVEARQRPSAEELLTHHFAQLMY
The conditions noted are these: MAP3K3; 1 uM. In outline:
as §1

Assay [14] has as its target T14, kinases of the scanMAX Kinase assay panel (Homo sapiens, UniProt Q9BYT3).
T14 construct: purchased DiscoverX Co. (contract measurement) scanMAX Kinase assay panel
The note with it: kinase STK33; 1 uM in DMSO. Summed up:
as §1

Setting [15] is: kinase RSK2(Kin.Dom.1-N-terminal), read-out: % control, RSK2(Kin.Dom.1-N-terminal).
Where [16] appears, read: kinase RSK2(Kin.Dom.2-C-terminal), read-out: % control, RSK2(Kin.Dom.2-C-terminal).

T9 sequence (P53667 whole entry): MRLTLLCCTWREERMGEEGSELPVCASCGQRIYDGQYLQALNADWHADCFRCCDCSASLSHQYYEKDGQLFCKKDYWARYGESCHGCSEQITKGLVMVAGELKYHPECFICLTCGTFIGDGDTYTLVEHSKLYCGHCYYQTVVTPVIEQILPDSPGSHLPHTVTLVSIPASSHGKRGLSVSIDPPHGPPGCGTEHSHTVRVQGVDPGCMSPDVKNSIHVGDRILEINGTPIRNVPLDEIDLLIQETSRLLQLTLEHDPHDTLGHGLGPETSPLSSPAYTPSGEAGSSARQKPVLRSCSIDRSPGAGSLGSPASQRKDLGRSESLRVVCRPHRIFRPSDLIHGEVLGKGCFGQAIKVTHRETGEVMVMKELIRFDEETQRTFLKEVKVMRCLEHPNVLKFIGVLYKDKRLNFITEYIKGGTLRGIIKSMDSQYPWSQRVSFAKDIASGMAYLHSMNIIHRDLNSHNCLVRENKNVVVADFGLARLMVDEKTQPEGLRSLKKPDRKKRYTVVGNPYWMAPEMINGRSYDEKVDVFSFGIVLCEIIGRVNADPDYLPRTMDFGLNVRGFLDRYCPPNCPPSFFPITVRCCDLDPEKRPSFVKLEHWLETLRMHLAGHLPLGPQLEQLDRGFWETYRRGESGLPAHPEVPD
T7 sequence (P51812 whole entry): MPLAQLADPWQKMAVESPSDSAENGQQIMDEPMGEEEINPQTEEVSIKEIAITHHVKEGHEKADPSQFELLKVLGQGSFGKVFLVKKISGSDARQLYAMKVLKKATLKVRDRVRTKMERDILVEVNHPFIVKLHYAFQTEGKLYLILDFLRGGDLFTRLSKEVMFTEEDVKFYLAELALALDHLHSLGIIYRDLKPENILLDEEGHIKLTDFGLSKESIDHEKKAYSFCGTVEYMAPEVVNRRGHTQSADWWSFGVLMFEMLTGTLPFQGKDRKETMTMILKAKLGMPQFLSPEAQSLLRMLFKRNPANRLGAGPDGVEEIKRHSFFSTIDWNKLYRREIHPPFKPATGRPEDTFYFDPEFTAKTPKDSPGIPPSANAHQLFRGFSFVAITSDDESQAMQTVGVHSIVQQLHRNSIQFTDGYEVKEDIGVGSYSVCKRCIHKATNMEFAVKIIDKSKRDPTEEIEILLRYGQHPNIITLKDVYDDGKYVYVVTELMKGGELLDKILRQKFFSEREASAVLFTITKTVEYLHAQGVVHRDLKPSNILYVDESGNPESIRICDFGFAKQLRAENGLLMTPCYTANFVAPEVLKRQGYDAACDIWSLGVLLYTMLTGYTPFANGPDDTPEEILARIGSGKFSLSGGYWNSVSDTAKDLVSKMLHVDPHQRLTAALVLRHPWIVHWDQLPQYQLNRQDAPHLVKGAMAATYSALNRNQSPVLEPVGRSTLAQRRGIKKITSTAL
T14 sequence (Q9BYT3 whole entry): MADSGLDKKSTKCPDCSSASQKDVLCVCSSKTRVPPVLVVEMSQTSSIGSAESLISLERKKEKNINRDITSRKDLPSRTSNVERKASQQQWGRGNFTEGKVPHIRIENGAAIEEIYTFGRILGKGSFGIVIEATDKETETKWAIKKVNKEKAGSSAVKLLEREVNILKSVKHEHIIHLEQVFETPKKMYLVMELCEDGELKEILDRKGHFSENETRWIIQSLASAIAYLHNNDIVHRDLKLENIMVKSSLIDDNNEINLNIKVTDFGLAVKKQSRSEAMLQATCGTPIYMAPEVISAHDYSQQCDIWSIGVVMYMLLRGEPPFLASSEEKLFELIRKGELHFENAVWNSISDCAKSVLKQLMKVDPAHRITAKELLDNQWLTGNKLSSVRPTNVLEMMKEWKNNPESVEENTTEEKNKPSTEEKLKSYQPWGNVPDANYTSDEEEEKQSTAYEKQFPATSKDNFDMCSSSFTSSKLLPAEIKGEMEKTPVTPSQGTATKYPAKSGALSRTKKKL

In the case of `CNc1nc(Nc2ccc(C(=O)N3CCOCC3)cc2OC)nc2[nH]cc(C#N)c12` [Example 1, 2-((2-methoxy-4-(morpholine-4-carbonyl)phenyl)amino)-4-(methylamino)-7H-pyrrolo[2,3-d]pyrimidine-5-carbonitrile], the remaining binding at 1 µM in [1] was determined as 57%; in [2], 56%; in [3], 78%; in assay [4], 94%; in [5], 5%; in assay [6] it was 12%. The remaining binding at 1 µM is 68% in [7] (setting [15]); 66% in assay [7] (setting [16]); 70% in assay [8]; 100% in assay [9]; 100% in [10]; 90% in [11]. For the same compound, the remaining binding at 1 µM in assay [12] amounted to 62%; in assay [13], 98%; in assay [14], 18%.
Consider `CC1(Nc2nc(Nc3cnn([C@H]4CCN(C5COC5)C[C@@H]4F)c3Cl)nc3[nH]cc(C#N)c23)CC1` [Example 52, 2-((5-chloro-1-((3S,4S)-3-fluoro-1-(oxetane-3-yl)piperidine-4-yl)-1H-pyrazole-4-yl)amino)((1-methylcyclopropyl)amino)-7H-pyrrolo[2,3-d]pyrimidine-5-carbonitrile], for which the remaining binding at 1 µM in assay [1] stood at 34%; in assay [2], 23%; in assay [3] it was 100%; in [4], 63%; in [5], 1%; in assay [6], 0.15%. For the same compound, the remaining binding at 1 µM in assay [7] (setting [15]) is 0.55%; in assay [7] (setting [16]) it was 100%; in assay [8], 96%; in assay [9], 98%; in [10], 58%; in [11], 4.4%. Besides, the remaining binding at 1 µM in [12] was 57%; in assay [13], 0.1%; in assay [14], 4%.
Take `CCNc1nc(Nc2ccc(C(=O)N3CCC(N4CCOCC4)CC3)cc2OC)nc2[nH]cc(C(F)(F)F)c12` [Example 104, (4-((4-(ethylamino)-5-(trifluoromethyl)-7H-pyrrolo[2,3-d]pyrimidine-2-yl)amino)-3-methoxyphenyl)(4-morpholinopiperidine-1-yl)methanone]: the remaining binding at 1 µM in assay [1] was 49%; in assay [2] it was 100%; in assay [3], 100%; in assay [4] it was 91%; in assay [5] it was 2.6%; in [6], 4.2%. The remaining binding at 1 µM in assay [7] (setting [15]) was determined as 100%; in assay [7] (setting [16]), 71%; in [8] it was 82%; in assay [9], 100%; in assay [10] it was 74%; in assay [11], 96%. Further, the remaining binding at 1 µM amounted to 81% in assay [12], 87% in assay [13] and 13% in assay [14].
